# Experimental data from ChEMBL document CHEMBL4402572, “Development of Benzenesulfonamide Derivatives as Potent Glutathione Transferase Omega-1 Inhibitors” (J Med Chem, 2020).
# Experiments:
# [1] = biological target: T1, Glutathione S-transferase omega-1 (Homo sapiens, UniProt P78417); experiment: Inhibition of recombinant GSTO1-1 (unknown origin) expressed in Escherichia coli assessed as inhibitor constant using S-(4-nitrophenacyl)glutathione as substrate preincubated for 1 to 6 mins followed by substrate addition by spectrophotmetric analysis
# T1 sequence (P78417 whole entry): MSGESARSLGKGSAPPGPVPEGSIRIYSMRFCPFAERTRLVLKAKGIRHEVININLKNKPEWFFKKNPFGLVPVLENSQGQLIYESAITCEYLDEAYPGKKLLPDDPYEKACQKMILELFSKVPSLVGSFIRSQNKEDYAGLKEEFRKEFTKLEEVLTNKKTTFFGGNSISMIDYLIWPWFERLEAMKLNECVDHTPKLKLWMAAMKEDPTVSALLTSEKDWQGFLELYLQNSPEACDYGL
# [2] = biological target: T2, Glutathione S-transferase omega-1 (Homo sapiens) (UniProt P78417)
# T2 sequence (whole entry): T1 sequence (P78417 whole entry)
# Description: Inhibition of recombinant GSTO1-1 (unknown origin) expressed in Escherichia coli assessed as Kinact using S-(4-nitrophenacyl)glutathione as substrate preincubated for 1 to 6 mins followed by substrate addition by spectrophotmetric analysis
# [3] = biological target: T1, Glutathione S-transferase omega-1; experiment: Inhibition of recombinant GSTO1-1 (unknown origin) expressed in Escherichia coli using S-(4-nitrophenacyl)glutathione as substrate preincubated for 2 mins followed by substrate addition by 4-NPG assay
# [4] = biological target: T3, Glutathione S-transferase omega-1 (Mus musculus) (UniProt O09131); experiment: Inhibition of GSTO1-1 in mouse bone marrow derived macrophage cells assessed as reduction in LPS-induced IL-1beta release by measuring IL1 beta level at 5 uM pretreated with LPS for 3 hrs followed by compound addition and measured after 1 hr by ELISA relative to control; design: scale not given: the % may be the effect or the level left
# T3 sequence (whole entry): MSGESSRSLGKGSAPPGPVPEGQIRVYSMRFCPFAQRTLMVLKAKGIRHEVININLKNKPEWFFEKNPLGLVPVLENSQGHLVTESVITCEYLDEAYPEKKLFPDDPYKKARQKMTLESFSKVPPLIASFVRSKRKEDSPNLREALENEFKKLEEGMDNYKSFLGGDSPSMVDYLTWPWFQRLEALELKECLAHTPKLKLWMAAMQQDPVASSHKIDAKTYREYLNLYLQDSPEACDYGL
# [5] = Drug concentration in Swiss mouse plasma at 30 mg/kg, ip measured up to 2 hrs post dose by UPLC-MS analysis; assay type: ADME, organism-based
# [6] = Drug level in Swiss mouse plasma at 30 mg/kg, ip after 5 mins by UPLC-MS analysis; assay type: ADME, organism-based
# [7] = Drug concentration in Swiss mouse plasma at 30 mg/kg, ip measured at 1 hr post dose by UPLC-MS analysis; assay type: ADME, organism-based
# [8] = Cmax in Swiss mouse at 30 […], ip measured at 5 mins post dose by UPLC-MS analysis; assay type: ADME, organism-based; design: route intraperitoneal; settings: in vivo
# [9] = Stability in human liver microsomes assessed as drug degradation at 1 uM incubated for 60 mins in absence of NADPH by UPLC-MS analysis; assay type: ADME, Microsome; settings: 1 h
# [10] = Half life in mouse liver microsomes at 1 uM incubated for 60 mins in presence of NADPH by UPLC-MS analysis; assay type: ADME, Microsome
# [11] = Stability in mouse liver microsomes assessed as drug degradation at 1 uM incubated for 60 mins in absence of NADPH by UPLC-MS analysis; assay type: ADME, Microsome; settings: 1 h
# [12] = Kinetic solubility of compound in pH 7.4 phosphate buffer solution after 30 mins by nephelometry; assay type: physicochemical; settings: read-out: Kinetic_solubility
# [13] = Half life in human liver microsomes at 1 uM incubated for 60 mins in presence of NADPH by UPLC-MS analysis; assay type: ADME, Microsome
# [14] = Kinetic solubility of compound in water after 30 mins by nephelometry; assay type: physicochemical; settings: read-out: Kinetic_solubility
# [15] = Drug concentration in Swiss mouse plasma at 30 mg/kg, ip measured up to 4 hrs post dose by UPLC-MS analysis; assay type: ADME, organism-based
# [16] = Half life in Swiss mouse at 30 mg/kg, ip after 0.083 to 24 hrs by UPLC-MS analysis; assay type: ADME, organism-based; settings: in vivo
IC50 [3],Activity [4],Compound,other results
0.11 µM,,COCCCNS(=O)(=O)c1cc(NC(=O)CCl)ccc1Cl,Ki [1]: 9.9 µM; Kinact [2]: 1.3 min⁻¹
> 100 µM,,CN(C)S(=O)(=O)c1cc(NCC#N)ccc1Cl,
> 1000 µM,,CN(C)S(=O)(=O)c1cc(NC(=O)C(N)=O)ccc1Cl,
1.2 µM,43.7%,CN(C)S(=O)(=O)c1cc(C2CO2)ccc1Cl (stereo not given),Ki [1]: 5 µM; Kinact [2]: 0.47 min⁻¹
> 100 µM,,C/C=C/C(=O)Nc1ccc(Cl)c(S(=O)(=O)N(C)C)c1,
0.21 µM,,CN(C)S(=O)(=O)c1cc(NC(=O)CCl)ccc1OC(F)(F)F,
0.07 µM,36%,CC(C)NS(=O)(=O)c1cc(NC(=O)CCl)ccc1Cl,Ki [1]: 4.8 µM; Kinact [2]: 3 min⁻¹
0.06 µM,27.5%,CN(C)S(=O)(=O)c1cc(NC(=O)CCl)ccc1C(F)(F)F,Ki [1]: 1.2 µM; Kinact [2]: 1.1 min⁻¹; concentration at 2 h [5]: 1.5 nM; concentration at 5 min [6]: 11.6 µM
0.16 µM,24.3%,O=C(CCl)Nc1ccc(Cl)c(S(=O)(=O)N2CCOCC2)c1,Ki [1]: 6.7 µM; Kinact [2]: 8.1 min⁻¹; concentration at 5 min [6]: 3.87 µM; concentration at 1 h [7]: 7.1 nM
0.16 µM,41.5%,COCCCN(C)S(=O)(=O)c1cc(NC(=O)CCl)ccc1Cl,
> 100 µM,,CN(C)S(=O)(=O)c1cc(NC(=O)CC#N)ccc1Cl,
0.18 µM,,CN(CCO)S(=O)(=O)c1cc(NC(=O)CCl)ccc1Cl,
> 10 µM,,CC(=O)C(=O)Nc1ccc(Cl)c(S(=O)(=O)N(C)C)c1,
0.58 µM,,CNS(=O)(=O)c1cc(NC(=O)CCl)ccc1Cl,
> 10 µM,,CC(Cl)C(=O)Nc1ccc(Cl)c(S(=O)(=O)N(C)C)c1 (stereo not given),
0.34 µM,,O=C(CCl)Nc1ccc(Cl)c(S(=O)(=O)NC2CCOC2)c1 (stereo not given),
> 10 µM,,CN(C)S(=O)(=O)c1cc(NC(=O)CCCl)ccc1Cl,
,66.8%,CN(C)S(=O)(=O)c1cc(NC(=O)CCl)ccc1Cl,Cmax [8]: 9.38 µM; Stability [9]: Unstable; half-life at 1 µM [10]: 7 min; Stability [11]: Unstable; solubility kinetic at 0.5 h [12]: 50 to 100 µg/mL; half-life at 1 µM [13]: < 2 min; solubility kinetic at 0.5 h [14]: 50 to 100 µg/mL; concentration at 1 h [7]: 32.1 nM
0.13 µM,,CN(C)S(=O)(=O)c1cc(NC(=O)CCl)ccc1I,
0.08 µM,61.3%,COCCN(C)S(=O)(=O)c1cc(NC(=O)CCl)ccc1Cl,Ki [1]: 6.9 µM; Kinact [2]: 0.61 min⁻¹
> 100 µM,,CN(C)S(=O)(=O)c1cc(CC2CO2)ccc1Cl (stereo not given),
0.7 µM,,O=C(CCl)Nc1ccc(Cl)c(S(=O)(=O)NCCO)c1,
0.25 µM,3.4%,O=C(CCl)Nc1ccc(C(F)(F)F)c(S(=O)(=O)N2CCOCC2)c1,Cmax [8]: 6.37 µM; Ki [1]: 0.61 µM; Kinact [2]: 0.85 min⁻¹; concentration at 4 h [15]: 6.5 nM; half-life [16]: 84 min
0.71 µM,,CN(C)S(=O)(=O)c1cc(NC(=O)CCl)ccc1-c1ccccc1,
0.2 µM,,O=C(CCl)Nc1ccc(Cl)c(S(=O)(=O)NCC2CCCO2)c1 (stereo not given),
0.03 µM,47.8%,COCCNS(=O)(=O)c1cc(NC(=O)CCl)ccc1Cl,Ki [1]: 2.5 µM; Kinact [2]: 0.8 min⁻¹
,92.8%,C=CC(=O)Nc1ccc(Cl)c(S(=O)(=O)N(C)C)c1,
0.15 µM,,CN(C)S(=O)(=O)c1cc(NC(=O)CCl)ccc1Br,

Compound,IC50 [3],Activity [4],other results
CN(C)S(=O)(=O)c1cc(CCS(=O)(=O)F)ccc1Cl,> 10 µM,,
CN(C)S(=O)(=O)c1cc(CCCS(=O)(=O)F)ccc1Cl,3.2 µM,,
CN(C)S(=O)(=O)c1cc(NC(=O)CF)ccc1Cl,> 100 µM,,
CN(C)S(=O)(=O)c1cc(/C=C/S(=O)(=O)F)ccc1Cl,> 10 µM,,
CN(C)S(=O)(=O)c1cc(CS(=O)(=O)F)ccc1Cl,0.8 µM,39.8%,Ki [1]: 9.6 µM; Kinact [2]: 2.3 min⁻¹
